The target of the assay is corticotropin-releasing factor-binding protein / CRF receptor 2 complex (human). The assay can be described thus: blockers of CRF-binding protein–CRF-R2 complex – cell-based, uHTS hits, 384-well, dose response (AID 651639). The note with it: CRF-BP/CRF-R2 complex antagonism, cell-based 384-well.

Activity calls are given as the source filed them. The rule behind the calls is not given here. Bounds are passed on as bounds.

Broadly, the IC50 is the concentration that gives 50% inhibition. Regarding `CN1C(=O)C(N=Nc2ccc([N+](=O)[O-])cc2)SC1=S` (stereo not given), the IC50 was 1 µM.
The value for `Cc1ccc2nc(N3C(=O)C(O)=C(C(=O)c4ccco4)C3c3cccc(O)c3)sc2c1` (stereo not given) was > 20 µM (inactive); that for `O=[N+]([O-])c1cc(/C=N\O)ccc1Oc1ccc(F)cc1` was 17.5 µM; that for `N#C/C(=C(/O)COc1ccc(Cl)cc1)c1nc2ccccc2s1` was > 20 µM (inactive).
The value for `COc1ccc(/C=N/OCC(=O)N=Nc2c(O)[nH]c3ccc(Br)cc23)cc1` was > 20 µM (inactive).
The value for `COC(=O)c1ccc(/C(O)=C(\C#N)c2nc3ccccc3s2)cc1` was > 20 µM (inactive); that for `O=C1N=c2ccccc2=C1c1sc(=S)n(NC(=O)c2cccc(O)c2)c1O` was > 20 µM (inactive); that for `CN1c2ccccc2C(O)=C(C(=S)Nc2ccc(Cl)cc2)S1(=O)=O` was > 20 µM (inactive).
On to `Cc1ccc2nc(N3C(=O)C(O)=C(C(=O)c4ccc(C)o4)C3c3cccc(O)c3)sc2c1` (stereo not given), for which the IC50 was 10.4 µM.
`Cc1ccc(-n2[nH]c(C)c(/C=N/Nc3ccc([N+](=O)[O-])cc3[N+](=O)[O-])c2=O)cc1`: the IC50 is 15.5 µM.
The same measure for `Cc1ccc(S(=O)(=O)N(CC(=O)N=Nc2c(O)[nH]c3ccccc23)c2ccc(C)c(C)c2)cc1`: > 20 µM (inactive).
The same measure for `O=C(O)c1ccc(/C=N/Nc2cccc(C(F)(F)F)c2)cc1`: > 20 µM (inactive); for `N#C/C(=C(/O)Cc1cccc2ccccc12)c1nc2ccccc2s1`: 11.3 µM; for `COc1ccc(C(C)=NNc2ccc([N+](=O)[O-])cc2S(=O)(=O)Nc2ccccc2C(=O)O)c(OC)c1`: 9.4 µM.
The same measure for `Cc1cc(=O)oc2c1ccc1oc(/C(=N/O)c3ccccc3)c(C)c12`: > 20 µM (inactive).
